{"source": "patent US20250281479A1", "about": "“TREATMENT OF CAVERNOUS ANGIOMAS WITH A 4-SUBSTITUTED PIPERIDINE DERIVATIVE” (Neurelis, Inc., priority 2024, published 2025)", "key": {"[1]": {"tested_on": "human alpha1-acid glycoprotein", "assay": "binding to human alpha1-acid glycoprotein", "format": "in vitro ADME", "description": "(§1) Exposure to NRL-2017 was similar or greater (up to 5-fold) than that to NRL-1049 in rats when dosed once a day (QD). In monkeys, exposure to NRL-2017 was also greater (up to 33-fold) than that to NRL-1049. When rats were dosed twice a day (BID) for 14 days, there was a decrease in formation of NRL-2017 with exposure to NRL-2017 lower than that of NRL-1049 (ratio as low as 0.06). […] NRL-1049 bound to human serum albumin and human alpha1-acid glycoprotein. […] There was also inhibition of P-glycoprotein (P-gp) (only CACO-2 cells), organic anion transporting polypeptides (OATP) OATP1B1, OATP1B3 and OAT3 (IC50, >100 μM), but no effect on P-gp (MDCK2 cells), breast cancer resistance protein (BCRP), bile salt export pump (BSEP), or MATE2-K. NRL-1049 is a substrate for P-gp, not BCRP. […] This conclusion will be revisited when human pharmacokinetic (PK) data becomes available."}, "[2]": {"tested_on": "mouse, monkey, and human hepatocytes", "assay": "incubation with hepatocytes (mouse, monkey, human)", "format": "in vitro ADME", "description": "as §1"}, "[3]": {"assay": "first-in-human single ascending dose and food-effect study, safety and tolerability", "format": "in vivo", "description": "This was a first-in-human, single center, randomized, double-blind, placebo-controlled, single ascending dose (SAD) study, including a food-effect assessment, in healthy male and female subjects. Up to 44 subjects were included in the study.\nThe study consisted of 4 sequential cohorts of 8 subjects each (6 active and 2 placebo), randomly assigned to receive a single oral dose of NRL-1049 or matching-placebo under fasting state on Day 1 (See Table 2). In each cohort, a sentinel group of 2 subjects (1 active and 1 placebo) were dosed at least 24 hours prior to enrolling the remaining subjects of the cohort, contingent on the safety profile observed during sentinel dosing, as defined by medical judgment.\nSubjects were admitted to the clinical research unit (CRU) on Day −1. On Day 1, following an overnight fast, subjects received a single oral dose of their assigned study treatment. Safety, PK, and exploratory biomarker assessments were performed prior to dosing and at assigned time points during study confinement. Subjects were permitted to leave the CRU following the completion of the 48-hour PK postdose sampling and safety assessments. A safety follow-up phone call was performed on Day 8 (±1 day).\nEach dose cohort was separated by at least 7 days to review safety by the Data Safety Monitoring Board (DSMB) prior to a decision to proceed with the next higher dose cohort or stop the study.\nFurthermore, a food-effect assessment was integrated into Cohort 3, in which a single oral 150 mg dose of NRL-1049 or placebo was administered to 12 subjects (10 active and 2 placebo) under fed state in Period 2 (refer to schedule of food-effect Cohort 3 in Table 3). After completion of Period 1 and a washout period of at least 14 days, Cohort 3 subjects repeated the screening procedures to ensure they still met the inclusion and exclusion criteria prior to readmission to the CRU for Period 2. Subjects dosed in Period 1 and who returned for Period 2 (a maximum of 6 active and 2 placebo) were administered the same single oral dose in Period 2 under fed state. In addition, at least 4 new subjects were enrolled in Period 2 only, in order to dose a total of 12 subjects (10 active and 2 placebo), in a 1:1 ratio of male to female. If a subject dosed in Period 1 was unable to return for Period 2, a new subject was enrolled to ensure dosing a total of 12 subjects in Period 2. Newly enrolled subjects only received the study drug in the fed state, and as such were not required to undergo Period 1 activities. There was no sentinel approach in Period 2.\nThe safety, PK, and exploratory biomarker assessments were performed prior to dosing and at assigned time points during study confinement. For the food-effect cohort, exploratory biomarker samples were collected in both periods. Subjects were discharged from the CRU following the completion of the 48-hour PK postdose sampling and safety assessments. A safety follow-up phone call was performed on Day 23 (±1 day)."}, "OATP1B1": {"target": "OATP1B1 (Homo sapiens, UniProt Q9Y6L6)", "sequence (Q9Y6L6 whole entry)": "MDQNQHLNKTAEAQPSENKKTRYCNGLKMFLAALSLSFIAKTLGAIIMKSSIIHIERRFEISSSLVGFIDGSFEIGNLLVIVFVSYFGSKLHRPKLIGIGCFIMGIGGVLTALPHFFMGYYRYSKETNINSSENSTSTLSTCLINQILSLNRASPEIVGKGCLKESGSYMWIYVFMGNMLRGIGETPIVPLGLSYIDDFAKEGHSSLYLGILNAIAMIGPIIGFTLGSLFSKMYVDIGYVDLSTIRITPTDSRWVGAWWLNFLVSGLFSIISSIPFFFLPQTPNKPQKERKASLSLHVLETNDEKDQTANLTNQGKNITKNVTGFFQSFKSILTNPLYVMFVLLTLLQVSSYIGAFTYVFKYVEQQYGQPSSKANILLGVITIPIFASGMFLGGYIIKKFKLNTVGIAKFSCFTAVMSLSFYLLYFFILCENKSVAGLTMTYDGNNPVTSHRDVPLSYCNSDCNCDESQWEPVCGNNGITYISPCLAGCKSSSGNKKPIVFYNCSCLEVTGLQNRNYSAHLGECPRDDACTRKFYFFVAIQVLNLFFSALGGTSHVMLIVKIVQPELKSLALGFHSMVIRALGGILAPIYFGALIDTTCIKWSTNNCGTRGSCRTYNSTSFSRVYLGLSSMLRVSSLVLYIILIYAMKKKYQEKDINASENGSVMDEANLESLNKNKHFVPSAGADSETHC", "assay": "transporter inhibition", "format": "in vitro ADME", "description": "as §1"}, "[4]": {"target": "breast cancer resistance protein (BCRP) (Homo sapiens, UniProt Q9UNQ0)", "sequence (Q9UNQ0 whole entry)": "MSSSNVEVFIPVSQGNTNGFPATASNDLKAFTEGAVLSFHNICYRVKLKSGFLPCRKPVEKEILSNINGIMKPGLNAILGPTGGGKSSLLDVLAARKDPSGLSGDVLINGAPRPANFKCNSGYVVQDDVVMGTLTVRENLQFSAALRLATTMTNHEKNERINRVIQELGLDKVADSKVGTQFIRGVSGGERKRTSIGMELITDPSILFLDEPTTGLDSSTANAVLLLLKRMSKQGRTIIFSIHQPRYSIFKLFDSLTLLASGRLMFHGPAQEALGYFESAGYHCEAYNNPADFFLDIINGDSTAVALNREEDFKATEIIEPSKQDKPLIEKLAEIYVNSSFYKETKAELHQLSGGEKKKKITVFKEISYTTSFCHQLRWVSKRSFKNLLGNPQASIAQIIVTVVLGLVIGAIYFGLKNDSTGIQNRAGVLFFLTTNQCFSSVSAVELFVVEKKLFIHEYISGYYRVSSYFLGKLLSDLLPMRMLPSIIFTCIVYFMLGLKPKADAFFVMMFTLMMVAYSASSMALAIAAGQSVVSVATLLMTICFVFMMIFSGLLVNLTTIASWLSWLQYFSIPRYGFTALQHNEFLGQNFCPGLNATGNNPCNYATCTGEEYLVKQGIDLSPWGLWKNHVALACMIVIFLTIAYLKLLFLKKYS", "assay": "transporter inhibition", "format": "in vitro ADME", "description": "as §1"}, "OCT2": {"target": "OCT2 (Homo sapiens, UniProt O15244)", "assay": "transporter inhibition", "format": "in vitro ADME", "conditions": "one range printed for OAT1, OCT1, OCT2 and MATE1 together", "description": "as §1"}, "OCT1": {"target": "OCT1 (Homo sapiens, UniProt O15245)", "assay": "transporter inhibition", "format": "in vitro ADME", "conditions": "one range printed for OAT1, OCT1, OCT2 and MATE1 together", "description": "as §1"}, "P-gp (MDCK2 cells)": {"target": "T1, P-gp (MDCK2 cells) (Homo sapiens, UniProt P08183)", "T1 construct": "host or cells: MDCK2 cells", "T1 sequence (P08183 whole entry)": "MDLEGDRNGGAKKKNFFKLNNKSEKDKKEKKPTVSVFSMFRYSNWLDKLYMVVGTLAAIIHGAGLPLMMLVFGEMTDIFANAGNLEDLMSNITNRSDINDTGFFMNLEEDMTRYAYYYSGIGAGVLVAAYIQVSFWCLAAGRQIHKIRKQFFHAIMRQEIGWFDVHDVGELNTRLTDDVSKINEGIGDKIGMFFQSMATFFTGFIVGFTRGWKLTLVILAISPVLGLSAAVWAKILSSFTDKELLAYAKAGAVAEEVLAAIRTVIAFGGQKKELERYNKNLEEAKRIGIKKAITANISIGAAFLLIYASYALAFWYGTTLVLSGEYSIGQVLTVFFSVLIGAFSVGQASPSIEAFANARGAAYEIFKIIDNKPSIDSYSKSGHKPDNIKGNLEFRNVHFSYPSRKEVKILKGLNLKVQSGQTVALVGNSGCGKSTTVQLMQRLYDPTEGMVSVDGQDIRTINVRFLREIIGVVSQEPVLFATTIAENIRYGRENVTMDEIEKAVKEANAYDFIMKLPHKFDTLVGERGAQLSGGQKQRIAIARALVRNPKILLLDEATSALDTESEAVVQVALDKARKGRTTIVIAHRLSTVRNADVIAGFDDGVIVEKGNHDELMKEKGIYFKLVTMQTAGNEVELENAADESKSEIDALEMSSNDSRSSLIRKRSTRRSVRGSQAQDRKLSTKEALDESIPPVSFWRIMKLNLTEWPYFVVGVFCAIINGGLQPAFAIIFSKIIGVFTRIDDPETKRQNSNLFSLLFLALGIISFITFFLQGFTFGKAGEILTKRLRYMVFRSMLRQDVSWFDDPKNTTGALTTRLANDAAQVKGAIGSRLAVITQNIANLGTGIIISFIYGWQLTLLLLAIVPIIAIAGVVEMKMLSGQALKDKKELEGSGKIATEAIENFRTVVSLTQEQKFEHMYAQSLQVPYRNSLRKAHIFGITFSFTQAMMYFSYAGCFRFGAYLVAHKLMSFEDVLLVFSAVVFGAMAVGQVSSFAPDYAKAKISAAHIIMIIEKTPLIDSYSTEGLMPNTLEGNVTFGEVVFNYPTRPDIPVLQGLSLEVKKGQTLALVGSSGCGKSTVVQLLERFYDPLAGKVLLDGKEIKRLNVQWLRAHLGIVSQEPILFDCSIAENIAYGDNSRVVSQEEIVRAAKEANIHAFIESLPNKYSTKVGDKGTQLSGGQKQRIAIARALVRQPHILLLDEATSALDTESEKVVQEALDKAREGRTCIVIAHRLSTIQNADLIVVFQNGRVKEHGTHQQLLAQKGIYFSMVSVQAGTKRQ", "assay": "transporter inhibition", "format": "in vitro ADME", "description": "as §1"}, "OAT1": {"target": "OAT1 (Homo sapiens, UniProt Q4U2R8)", "sequence (Q4U2R8 whole entry)": "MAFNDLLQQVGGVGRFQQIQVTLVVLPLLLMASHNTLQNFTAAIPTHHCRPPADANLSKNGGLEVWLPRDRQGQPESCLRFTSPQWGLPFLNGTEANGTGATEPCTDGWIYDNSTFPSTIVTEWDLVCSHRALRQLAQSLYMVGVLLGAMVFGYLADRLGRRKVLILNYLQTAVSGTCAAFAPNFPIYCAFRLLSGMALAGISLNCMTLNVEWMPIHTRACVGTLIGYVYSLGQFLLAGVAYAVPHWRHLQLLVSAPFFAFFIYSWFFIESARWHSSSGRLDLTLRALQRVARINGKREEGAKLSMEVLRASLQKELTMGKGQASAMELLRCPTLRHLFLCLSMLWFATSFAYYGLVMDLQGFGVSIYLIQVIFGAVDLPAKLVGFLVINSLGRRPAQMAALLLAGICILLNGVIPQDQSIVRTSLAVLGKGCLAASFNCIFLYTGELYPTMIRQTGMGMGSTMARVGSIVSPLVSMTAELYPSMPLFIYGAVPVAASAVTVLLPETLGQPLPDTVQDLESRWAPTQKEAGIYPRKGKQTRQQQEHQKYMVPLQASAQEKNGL", "assay": "transporter inhibition", "format": "in vitro ADME", "conditions": "one range printed for OAT1, OCT1, OCT2 and MATE1 together", "description": "as §1"}, "OAT3": {"target": "OAT3 (Homo sapiens, UniProt Q8TCC7)", "assay": "transporter inhibition", "format": "in vitro ADME", "description": "as §1"}, "OATP1B3": {"target": "OATP1B3 (Homo sapiens, UniProt Q9NPD5)", "sequence (Q9NPD5 whole entry)": "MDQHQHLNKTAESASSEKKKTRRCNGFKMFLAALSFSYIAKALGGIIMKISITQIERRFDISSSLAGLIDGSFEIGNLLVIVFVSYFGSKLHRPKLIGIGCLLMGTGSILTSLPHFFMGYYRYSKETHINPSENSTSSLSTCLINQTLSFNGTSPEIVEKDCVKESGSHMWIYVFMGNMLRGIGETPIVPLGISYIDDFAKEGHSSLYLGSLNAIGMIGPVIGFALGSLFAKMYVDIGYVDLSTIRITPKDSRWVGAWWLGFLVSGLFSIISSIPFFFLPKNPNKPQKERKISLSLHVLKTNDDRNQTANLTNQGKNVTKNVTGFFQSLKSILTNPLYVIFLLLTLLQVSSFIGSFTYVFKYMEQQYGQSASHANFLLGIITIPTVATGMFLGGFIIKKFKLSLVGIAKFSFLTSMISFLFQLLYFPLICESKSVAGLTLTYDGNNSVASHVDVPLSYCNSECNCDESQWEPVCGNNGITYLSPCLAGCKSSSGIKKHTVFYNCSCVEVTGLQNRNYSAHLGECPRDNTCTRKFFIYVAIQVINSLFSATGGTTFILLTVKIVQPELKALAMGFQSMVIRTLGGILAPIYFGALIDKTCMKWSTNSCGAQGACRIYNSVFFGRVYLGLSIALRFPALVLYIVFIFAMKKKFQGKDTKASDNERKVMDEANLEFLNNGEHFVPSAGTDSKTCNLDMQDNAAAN", "assay": "transporter inhibition", "format": "in vitro ADME", "description": "as §1"}, "CYP2B2": {"tested_on": "CYP2B2", "assay": "CYP expression in hepatocyte culture", "format": "in vitro ADME", "conditions": "at concentrations as low as 3.2 μM", "description": "as §1"}, "cytochrome P450 (CYP)": {"tested_on": "cytochrome P450 (CYP)", "assay": "metabolite or time-dependent CYP inhibition", "format": "in vitro ADME", "description": "as §1"}, "rat hepatocytes": {"tested_on": "rat hepatocytes", "assay": "incubation with rat hepatocytes", "format": "in vitro ADME", "conditions": "two metabolites formed, NRL-2017 and an N-oxide", "description": "as §1"}, "human serum albumin": {"target": "human serum albumin (Homo sapiens, UniProt P02768)", "sequence (P02768 25-609)": "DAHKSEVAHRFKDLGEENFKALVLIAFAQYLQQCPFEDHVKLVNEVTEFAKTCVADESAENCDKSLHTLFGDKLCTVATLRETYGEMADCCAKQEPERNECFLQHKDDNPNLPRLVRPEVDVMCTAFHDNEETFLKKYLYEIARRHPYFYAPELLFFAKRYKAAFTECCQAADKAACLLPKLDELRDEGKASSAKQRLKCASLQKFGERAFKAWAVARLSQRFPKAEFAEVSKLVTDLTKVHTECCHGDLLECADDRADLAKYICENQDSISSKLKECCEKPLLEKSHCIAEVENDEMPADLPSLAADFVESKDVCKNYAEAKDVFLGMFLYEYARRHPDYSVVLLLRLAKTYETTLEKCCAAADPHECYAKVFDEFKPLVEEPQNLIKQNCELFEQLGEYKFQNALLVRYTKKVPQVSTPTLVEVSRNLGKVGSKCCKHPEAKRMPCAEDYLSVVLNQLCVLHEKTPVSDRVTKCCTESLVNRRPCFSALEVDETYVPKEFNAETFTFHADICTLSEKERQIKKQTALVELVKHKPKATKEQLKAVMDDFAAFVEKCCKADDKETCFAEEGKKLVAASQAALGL", "assay": "binding to human serum albumin", "format": "in vitro ADME", "description": "as §1"}, "CYP2D6": {"target": "CYP2D6 (Homo sapiens, UniProt P10635)", "sequence (P10635 whole entry)": "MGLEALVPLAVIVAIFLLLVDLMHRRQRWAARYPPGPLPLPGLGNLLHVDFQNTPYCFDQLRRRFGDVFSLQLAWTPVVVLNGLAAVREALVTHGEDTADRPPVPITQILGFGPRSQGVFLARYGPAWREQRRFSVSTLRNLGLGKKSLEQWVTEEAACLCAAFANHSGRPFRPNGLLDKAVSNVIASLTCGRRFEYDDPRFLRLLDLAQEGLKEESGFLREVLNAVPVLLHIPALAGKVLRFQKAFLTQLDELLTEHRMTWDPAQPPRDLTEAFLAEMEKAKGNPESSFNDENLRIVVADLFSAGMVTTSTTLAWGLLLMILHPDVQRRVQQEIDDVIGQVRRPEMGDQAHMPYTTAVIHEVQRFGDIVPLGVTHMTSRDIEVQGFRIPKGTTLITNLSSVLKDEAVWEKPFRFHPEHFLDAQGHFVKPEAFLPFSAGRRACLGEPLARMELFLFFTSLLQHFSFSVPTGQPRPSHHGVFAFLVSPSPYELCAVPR", "assay": "CYP isozyme mediating metabolism", "format": "in vitro ADME", "description": "as §1"}, "[5]": {"assay": "tissue distribution and excretion", "format": "in vivo", "description": "as §1"}}, "data": [{"smiles": "C[C@@H](N)C1CCN(S(=O)(=O)c2cccc3cnccc23)CC1", "note": "[NRL-1049]", "values": [{"measurement": "binding to human alpha1-acid glycoprotein", "setting": "[1]", "value": "bound"}, {"measurement": "clearance in hepatocytes", "setting": "[2]", "value": "moderate to high clearance"}, {"measurement": "deaths or SAEs", "setting": "[3]; Part 1 (SAD)", "value": "No deaths or SAEs"}, {"measurement": "deaths or SAEs", "setting": "[3]; Part 2", "value": "No deaths or SAEs"}, {"measurement": "TEAEs of Grade 1/mild", "setting": "[3]; both, human, in vivo", "value": 57.1, "unit": "%"}, {"measurement": "TEAEs of Grade 1 or Grade 2", "setting": "[3]; both, human, in vivo", "value": 92.3, "unit": "%"}, {"measurement": "TEAEs of Grade 2/moderate", "setting": "[3]; both, human, in vivo", "value": 42.9, "unit": "%"}, {"measurement": "TEAEs deemed related to study treatment", "setting": "[3]; both, human, in vivo, 8 days", "value": 76.9, "unit": "%"}, {"measurement": "TEAEs of Grade 1", "setting": "[3]; both, human, in vivo, 8 days", "value": 30.8, "unit": "%"}, {"measurement": "TEAEs of Grade 2", "setting": "[3]; both, human, in vivo, 8 days", "value": 61.5, "unit": "%"}, {"measurement": "subjects who experienced TEAEs", "setting": "[3]; both, human, in vivo, 8 days", "value": 28.1, "unit": "%"}, {"measurement": "CS abnormal findings in laboratory parameters, vital signs, ECGs, physical examination, or cardiac telemetry", "setting": "[3]; in vivo", "value": "No CS abnormal findings"}, {"measurement": "blood pressure", "setting": "[3]; in vivo", "value": "reduction of blood pressure"}, {"measurement": "tolerability", "setting": "[3]; in vivo, po", "value": "generally well tolerated"}, {"measurement": "deaths, SAEs, Grade 4/5 TEAEs", "setting": "[3]; overall", "value": "no deaths, SAEs, or Grade 4/5 TEAEs"}, {"measurement": "MTD", "setting": "[3]; single oral dose, levels between 150 and 250 mg not explored", "value": 150, "unit": "mg"}, {"measurement": "IC50", "setting": "OATP1B1", "value": "> 100", "unit": "µM"}, {"measurement": "effect on transporter", "setting": "[4]", "value": "no effect"}, {"measurement": "IC50", "setting": "OCT2", "value": "8.54 to 66.2", "unit": "µM"}, {"measurement": "IC50", "setting": "OCT1", "value": "8.54 to 66.2", "unit": "µM"}, {"measurement": "effect on transporter", "setting": "P-gp (MDCK2 cells)", "value": "no effect"}, {"measurement": "IC50", "setting": "OAT1", "value": "8.54 to 66.2", "unit": "µM"}, {"measurement": "IC50", "setting": "OAT3", "value": "> 100", "unit": "µM"}, {"measurement": "IC50", "setting": "OATP1B3", "value": "> 100", "unit": "µM"}, {"measurement": "reduced expression of CYP2B2", "setting": "CYP2B2", "value": 0.5, "unit": "fold"}, {"measurement": "metabolite or time-dependent inhibition", "setting": "cytochrome P450 (CYP)", "value": "no metabolite or time-dependent inhibition"}, {"measurement": "clearance rate in hepatocytes", "setting": "rat hepatocytes", "value": "moderate"}, {"measurement": "binding to human serum albumin", "setting": "human serum albumin", "value": "bound"}, {"measurement": "metabolism by CYP2D6", "setting": "CYP2D6", "value": "primarily mediated"}, {"measurement": "tissue distribution", "setting": "[5]; brain, aorta, inferior vena cava", "value": "distributed to brain and vascular tissue"}, {"measurement": "excretion", "setting": "[5]; in vivo", "value": "excreted in urine"}]}]}
